Results on one substance are retold here after patent US9802064B2, “Microcapsule comprising glycoprotein derived from plants” (AMOREPACIFIC CORPORATION, priority 2012, dated 2017).

A short description of the test: DPPH assay of anti-oxidative (radical scavenging) activity. It counts as biochemical. As to conditions: 100 μM DPPH, 37° C., 30 minutes, absorbance 517 nm; FIG. 7. As to the method:
To evaluate anti-oxidative activity, DPPH (1,1-diphenyl-2-picrylhydrazyl) assay was carried out. The samples used in this test (Doore Co., Ltd.) are as follows.
DPPH assay is a test in which an oxidant called DPPH is used to initiate oxidation and the ability of a sample to be tested in removing radicals is determined. When DPPH meets a material having anti-oxidative activity, it […] electrons to cause radical removing and undergoes a change in color from purple to yellow. Thus, it is possible to observe the oxidative activity of a material easily with the naked eye.
Each sample was introduced to a 96-well plate in an amount of 10 μl, and 100 μM of DPPH was introduced thereto in an amount of 190 μl. After carrying out reaction at 37° C. for 30 minutes, the absorbance was measured at 517 nm. Vitamin C was used as positive control (10, 5, 2.5 μg/ml).

Consider sodium caseinate [ISAI-022], for which the “anti-oxidative activity (DPPH radical scavenging)” value is recorded as “no radical scavenging activity”.
